Calls of active or inactive are those of the source. No cut-off for these calls is given here.
Key:
Blepharisma japonicum [1] = experiment: Inhibition of blepharismone-induced monotypic pairing of Blepharisma japonicum R1072 upto 1 mM; format: functional
Blepharisma japonicum [2] = experiment: Inhibition of blepharismone-induced monotypic pairing of Blepharisma japonicum R1072; format: functional

Structure (SMILES) | Inhibitory concentration (Blepharisma japonicum [1]) [µM] | Activity (Blepharisma japonicum [2])
O=C(Cc1ccc(-c2ccccc2)cc1)Nc1ccc(O)cc1C(=O)C[C@H](O)C(=O)O | 4.8 | 
CC(=O)c1ccccc1NC(=O)CCCc1ccc2ccc3cccc4ccc1c2c34 | >1000 | inactive
O=C(CCCc1ccc2ccc3cccc4ccc1c2c34)Nc1ccc(O)cc1C(=O)C[C@H](O)C(=O)O | 4 | 
CC(=O)c1ccccc1NC(=O)Cc1ccc(-c2ccccc2)cc1 | >1000 | inactive

Reference: ChEMBL document CHEMBL1146353, “Synthesis of fluorescent molecular probes specific for the receptor of blepharismone, a mating-inducing pheromone of the ciliate Blepharisma japonicum” (2007)
